In US20230310531A1, “TRIPTERYGIUM WILFORDII COMPOSITION FOR INHIBITING DRUG-RESISTANT CANCER, AND PREPARATION METHOD AND USE THEREOF” (HUAQIAO UNIVERSITY, priority 2022, published 2023):
Where two headings read alike, the source gives them in different places.

Experiments:
Assay type in all cases: cell-based, human
H460/DDP cells = experiment: MTT cell proliferation inhibition, H460/DDP cells; conditions: for IC50: H460/DDP cells; for Combination index (CI): H460/DDP
Experimental: (§1) The cisplatin-resistant cells of non-small cells, lung cancer cells A549 and H1299 and human large cells, lung cancer cells H460 (that is, A549/DDP, H1299/DDP, and H460/DDP), as well as normal human lung bronchial epithelial cells 16HBE were used as cultured cells. All the cells were cultured with a PRMI-1640 complete medium at 37° C. with a CO2 concentration of 5%. Three kinds of cell models were established by culturing the above cells to a certain amount.
(§2) The three kinds of cells in a logarithmic growth phase obtained in step 1 were separately inoculated in a 96-well plate at a density of 5×10^4 cells/mL. 90 μL of the cells were added to each well, and a complete medium as a blank control group, a DMSO negative control, a TP positive control, and experimental groups with different concentrations of compounds were set up. Three replicate wells were set up in each group, and the cells were cultured in a carbon dioxide incubator for 24 h. Drugs were added in a volume of 10 μl to each well, such that final concentrations were 10 μg/ml, 20 μg/ml, 30 μg/ml, 40 μg/ml, and 50 μg/ml. After culturing for 24 h, 48 h, and 72 h, 10 μl of an MTT solution was added to each well. After incubation for 4 h, the medium in each well was aspirated, and 100 μl of DMSO was added. The culture plate was placed in a microplate reader and shaken for 5 min to dissolve crystals. The cells were put into a microplate reader for detection, and a detection wavelength was set to OD=490 nm and a reference wavelength OD=630 nm to measure an absorbance of each well.
(§3) Relative cell viability (%)=((OD value of drug experimental group−OD value of blank control group)/(OD value of negative control group−OD value of blank control group))×100%.
(§4) Relative cell inhibition rate (%)=(1−relative cell viability)×100%.
(§5) The formula for calculating a combination index (CI) was as follows: […]
(§6) In the formula, (Dx)1, (Dx)2, and (Dx)3 represented the drug doses used alone, while (D)1, (D)2, and (D)3 represented the […] contributed by the respective drugs in the combination. […] When CI<1, there was a synergistic effect; when CI>1, there was an antagonistic effect; and when CI=1, there was […].
(§7) A calculation method of IC50 was as follows: SPSS software was used for calculation: after entering the SPSS data editor, the (Variable View) was activated to define variables, and under the variable name (Name), informations were input as follows: “dose/concentration”, “inhibition rate”, “total value”. A parameter Analysis Regression Probit was selected, the “Probit Analysis” dialog box was brought up, the “Dose/Concentration” was selected into the “Covariates” column, the “Inhibition Rate” was selected into the “Response Frequency” column, and the “Total Value” was selected into the “Total Observed” column. In the “Transform” column, “Log base 10” was selected; in the “Mode 1” column, the “Probit” probability unit model was selected; and in the “Options” column, “Calculate from Data” was selected.
The experimental design, the five compounds, and a method for determining the inhibitory effect on cisplatin-resistant cells H460/DDP were the same as those in Example 1.

A549/DDP cells = experiment: MTT cell proliferation inhibition, A549/DDP cells; conditions: for cell inhibition rate increased, two drugs combined compared with the single drug group: TP 4 μg/ml plus compound (E 1, H 11, I 0.9, J 2, P 20 μg/ml), equal volume ratio; for IC50: compound alone
Experimental: as §1, §2, §3, §4, §5, §6, §7
When drugs were used in combination, the TP was compatible with any one or any two of the compounds E, H, I, J, and P separately in an equal volume ratio.

H1299/DDP cells = experiment: MTT cell proliferation inhibition, H1299/DDP cells; conditions: for Combination index (CI) / drug effect increased compared with TP alone: H1299/DDP; for drug effect increased compared with TP alone: used in combination with the TP
Experimental: as §1, §2, §3, §4, §5, §6, §7
The experimental design, the five compounds, and a method for determining the inhibitory effect on cisplatin-resistant cells H1229/DDP were the same as those in Example 1.

[1] = 48 h, compound alone (FIGS. 1A-R)
[2] = 48 h, TP 2.5 μg/ml, compound at higher dose (E 2, H 22, I 1.8, J 4, P 40 μg/ml)
[3] = 48 h, TP 2.5 μg/ml, compound at lower dose (E 1, H 11, I 0.9, J 2, P 20 μg/ml)
[4] = 48 h, TP 5 μg/ml, compound at higher dose (E 2, H 22, I 1.8, J 4, P 40 μg/ml)
[5] = 48 h, TP 5 μg/ml, compound at lower dose (E 1, H 11, I 0.9, J 2, P 20 μg/ml)
[6] = A549/DDP, TP 2.5 μg/ml, compound at higher dose (E 2, H 22, I 1.8, J 4, P 40 μg/ml)
[7] = A549/DDP, TP 2.5 μg/ml, compound at lower dose (E 1, H 11, I 0.9, J 2, P 20 μg/ml)
[8] = A549/DDP, TP 5 μg/ml, compound at higher dose (E 2, H 22, I 1.8, J 4, P 40 μg/ml)
[9] = A549/DDP, TP 5 μg/ml, compound at lower dose (E 1, H 11, I 0.9, J 2, P 20 μg/ml)
[10] = Homo sapiens, NCI-H460, 48 h, compound alone (FIGS. 1A-R), read-out: IC50
[11] = Homo sapiens, A549 cells (A549/DDP per FIG. 2 legend), 48 h, read-out: IC50
[12] = Homo sapiens, NCI-H1299, H1299/DDP, in combination with TP 2.5 μg/ml, read-out: IC50 concentrations doses
[13] = Homo sapiens, NCI-H1299, H1299/DDP, in combination with TP 5 μg/ml, read-out: IC50 concentrations doses

Compound | IC50 (H460/DDP cells; [1]) | Combination index (CI) (H460/DDP cells; [2]) | Combination index (CI) (H460/DDP cells; [3]) | Combination index (CI) (H460/DDP cells; [4]) | Combination index (CI) (H460/DDP cells; [5]) | cell inhibition rate increased, two drugs combined compared with the single drug group (A549/DDP cells; A549/DDP, 48 h) | Combination index (CI) (A549/DDP cells; [6]) | Combination index (CI) (A549/DDP cells; [7]) | Combination index (CI) (A549/DDP cells; [8]) | Combination index (CI) (A549/DDP cells; [9]) | Combination index (CI) (H1299/DDP cells; [2]) | Combination index (CI) (H1299/DDP cells; [3]) | Combination index (CI) (H1299/DDP cells; [4]) | drug effect increased compared with TP alone (H1299/DDP cells) | IC50 (H460/DDP cells; [10]) | IC50 (A549/DDP cells; [11]) | Combination index (CI) (H1299/DDP cells; [5]) | IC50 (H1299/DDP cells; [12]) | IC50 (H1299/DDP cells; [13]) | other results
C[C@@]1(C(=O)O)CC[C@]2(C)CC[C@]3(C)C4=CC(=O)c5c(cc(O)c(O)c5C=O)[C@]4(C)CC[C@@]3(C)[C@@H]2C1 [Compound H, Demethylzeylasteral] | 22.31 µg/mL | 0.5569 | 0.7051 | 0.4270 | 0.6318 | 1.54 times | 0.7225 | 0.8749 | 0.7206 | 1.1462 | 0.9651 | 0.8151 | 0.8689 | 2.12 times |  |  |  |  |  | 
CC(=O)OCC12C(OC(=O)C=Cc3ccccc3)CCC(C)(O)C13OC(C)(C)C(C(OC(C)=O)C2OC(=O)c1cccnc1)C3OC(C)=O (stereo not drawn) [Compound E, 1β-(E-cinnamoyloxy)-4a-hydroxy-5a,7β,11-triacetoxy-8β-nicotinoyloxy-dihydroagarofuran] | 1.98 µg/mL | 0.6604 | 1.4669 | 0.5008 | 1.1134 | 2.01 times | 1.1269 | 0.8986 | 1.1213 | 0.8688 | 1.1646 | 0.7473 | 0.8025 | 2.15 times |  |  |  |  |  | IC50 (H460/DDP cells; 48 h, compound alone (FIGS. 7A-E)): 0.58 µg/mL; IC50 (A549/DDP cells; A549 cells (A549/DDP per FIG. 2 legend), 48 h): 5.03 µg/mL
CC(C)c1ccc2c(c1O)CC[C@H]1C(C)(C)[C@@H](O)CC[C@]21C [Compound P, Triptobenzene B] |  | 0.1961 | 0.2435 | 0.2976 | 0.3777 | 1.34 times | 1.2660 | 1.0764 | 1.4985 | 1.1918 | 1.1079 | 1.7041 | 0.9326 |  | 39.2 µg/mL | 6.72 µg/mL | 0.6521 | 12 µg/mL | 11 µg/mL | IC50 (H1299/DDP cells; Homo sapiens, NCI-H1299, 48 h, H1299/DDP cells, 48 h, compound alone (FIGS. 5A-E), read-out: IC50): 12.8 µg/mL
CC(C)[C@]12O[C@H]1[C@@H]1O[C@]13[C@]1(O[C@H]1C[C@H]1C4=C(CC[C@@]13C)C(=O)OC4)[C@@H]2O [TP, triptolide, reference compound] |  |  |  |  |  |  |  |  |  |  |  |  |  |  | 1.97 µg/mL |  |  |  |  | IC50 (A549/DDP cells; Homo sapiens, A549/DDP, A549DDP cells, read-out: IC50 value of A549DDP cells used as a synergistic dose): 7.83 µg/mL
CC(C)c1ccc2c(c1)CCC1C(C)(CO)C(=O)CCC21C (stereo not shown) [Compound I, Triptobenzene R] | 1.893 µg/mL | 1.2499 | 1.1241 | 0.7619 | 0.9327 | 1.81 times | 0.8583 | 1.3864 | 0.8288 | 0.8316 | 1.1259 | 0.7373 | 1.1503 |  |  |  | 0.8353 |  |  | inhibitory effect compared with TP (A549/DDP cells; A549/DDP, 48 h, compound alone (FIGS. 3A-E)): better inhibitory effect on cells than that of the TP; IC50 (H1299/DDP cells; H1299 cells (H1299/DDP per FIG. 2 legend), 48 h, compound alone): 8.61 µg/mL
CC(C)c1ccc2c(c1)C(=O)C[C@H]1[C@@](C)(CO)[C@@H](O)CC[C@]21C [Compound J, (3S,4S,5R,10S)-3,19-dihydroxy-7-ox-oabieta-8,11,13-triene] |  | 0.3260 | 0.5384 | 0.3064 | 0.6519 | 1.58 times | 0.9025 | 0.9333 | 0.9982 | 0.6952 | 0.9855 | 0.6741 | 0.5884 |  | 4.32 µg/mL | 6.92 µg/mL | 0.6735 | 1.84 µg/mL | 0.9 µg/mL | IC50 (H460/DDP cells; Homo sapiens, NCI-H460, 48 h, compound alone (FIGS. 7A-E), read-out: IC50): 0.61 µg/mL; inhibition rate of combination with TP, times higher than TP alone (A549/DDP cells; A549/DDP, combination with TP): 1.32 times
